The values that follow come from US7833795B2, “Assessment of cardiovascular risk using isoprostane biomarkers and COX-2 selective inhibitors” (The Trustees of the University of Pennsylvania, priority 2004, dated 2010).

Data set [1] is described as follows: Case study of short term valdecoxib use. The class given is in vivo, human. The note with it: valdecoxib 20 mg b.i.d. Person on oral contraceptive. The method, then: A ventilation-perfusion scan (VQ scan) was performed according to typical hospital procedure. Inhalation of 20.1 millicurie (mCi) of Xenon-133 gas was used for the ventilation scan. Intravenous injection of 4.1 mCi of Tc-99m-labelled MAA was used for the perfusion scan.
A person presented with pulmonary embolism. They had been taking, without complication, Ortho-Tricyclen® (0.180, 0.215, and 0.250 mg norgestimate cycles; 35 microgram (μg) ethinyl estradiol) for two years and Ortho Tri-cyclen® LO (same norgestimate; 25 μg ethinyl estradiol) for 14 months. A non-smoker, they lacked a relevant family history and was vigorously athletic.
One month prior to presentation, they developed neck pain. Disc protrusion at C5-C6 was detected by magnetic resonance imaging (MRI). The patient was prescribed valdecoxib 20 mg b.i.d. for two weeks. Their neck pain resolved. However, towards the end of this two-week treatment period, they developed left-sided pleuritic chest and shoulder pain after a 6 hour car ride. They were commenced on cyclobenzaprine 10 mg b.i.d. and continued on valdecoxib. Their left-sided pain abated gradually. However, 18 days later, they developed right-sided chest and shoulder pain. […]

For data set [2] the following is noted: small, short-term studies of cardiopulmonary bypass grafting; cited from earlier work.
The test system of data set [3] is mice. Description: Tail cuff blood pressure measurement. The class given is in vivo, mouse. The note with it: celecoxib treatment, regular chow diet. Here is the method: (i) Tail Cuff measurement: Resting systolic blood was measured in conscious mice (3-4 months old) using a computerized noninvasive tail-cuff system (Visitech Systems, Apex, N.C.). […] Mice were adapted to the system for 14 days; measurements of sessions 25 minutes in length were done once each day between 15:00 and 18:00. After that, blood pressure was recorded daily for 3 consecutive days in the same way. Data were collected and analyzed using updated BP 2000 software (http://www(dot)visitechsystems(dot)com/).

The test system of a further data set is eicosanoid biosynthesis. Description: Urinary eicosanoid analyses in mice. The data set is classed as in vivo, mouse. Here is the method:
Mice: In all cases, transgenic mice deficient in the indicated gene were compared with appropriate strain-, age-, and sex-matched control animals. The investigator was unaware of the genotype throughout the experiment. All procedures were approved and animal husbandry was overseen by the Institutional Animal Care and Usage Committee of the University of Pennsylvania.
Eicosanoid analyses: Urinary 2,3-dinor TxB2 and 2,3-dinor 6-keto PGF1α were measured in twenty four hour urines collected in metabolic cages. After extraction and purification by thin layer chromatography, they were analyzed by gas chromatography/mass spectrometry, as previously described (Egan et al., 2005, Circulation 111:334). Urinary PGE-M was measured by LC/MS/MS as follows: First, 10 ng of hexadeuterated PGE-M (9,15-dioxo-11α-hydroxy-2,3,4,5-tetranor-prostan-1,20-dioic-17,17,18,18,19,19-d6 acid; Cayman Chemical Co., Ann Arbor, Mich.) was added to 0.1 ml of mouse urine. Next, 50 μL of methoxyamine HCl, 1 g/L, was added and the sample was mixed and allowed to stand at room temperature for 15 minutes. The sample was then diluted to 1.0 ml with water and extracted on a Strata™-X solid phase extraction (SPE) cartridge (Phenomenex Inc., Torrance, Calif.). The SPE was eluted with 1.0 mL of 5% acetonitrile in ethyl acetate, dried, dissolved in 200 μL 10% acetonitrile in water, and injected for LC/MS/MS analysis. Transitions monitored were m/z 385→336 for the endogenous PGE-M and 391→342 for the internal standard.

Data set [4] deals with mice. The note with it: mouse, in vivo.
Protocol: Briefly, mice (12→16 weeks) were anesthetized with sodium pentobarbital (80 mg/kg, intraperitoneally). Following a midline cervical incision, the left common carotid artery was isolated and a Doppler flow probe (Model 0.5 VB, Transonic Systems Co., Ithaca, N.Y.) was applied. The probe was connected to a flowmeter (Transonic Model T105) and interpreted with Powerlab® (AD Instruments, Colorado Springs, Colo.), a computerized data acquisition program. Rose Bengal (Fisher Scientific, Fair Lawn, N.J.) was diluted to phosphate-buffered saline and then injected into the jugular vein in a volume of 0.12 ml at a concentration of 50 mg/kg. Immediately prior to injection, a 1.5-mW green light laser (540 nm) (Melles Griot, Carlsbad, Calif.) was applied to the desired site of injury from a distance of 5 cm carotid artery; blood flow was monitored for 120 minutes or until stable occlusion occurred, after which the mice still showing blood flow were assigned a value of 120 minutes. Stable occlusion was defined as a blood flow of 0 ml/min for 3 minutes.
The test system of data set [5] is IP. As to the kind of experiment: Whole blood platelet aggregation assay. The note with it: 10 nM cicaprost, collagen 2 μg/ml ex vivo.
In data set [6] the test system is mouse aortic smooth muscle cells (MASMC). Description: H2O2-induced 8,12-iso-iPF2α-VI generation in MASMC. The class given is cell-based. Here is the method:
(§1) Mouse aortic smooth muscle cells (MASMCs): Primary aortic smooth muscle cells were prepared. […] Cells were cultured in Dulbecco's Modified Eagles medium (DMEM)/Ham's F12 (50/50) (Gibco BRL, Grand Island, N.Y.; with 15 mM HEPES and 2 mM glutamine) supplemented with 20% fetal bovine serum. Cells were routinely passaged using 0.05% trypsin/0.53 mM EDTA, seeded onto six well plates and used at 80-90% confluence, between passages five to nine.
Cicaprost (100 nM, Schering A G, Berlin, Germany by agreement) was added to MASMC medium just prior to addition of H2O2.
Short term treatment with E2: Cells were washed twice rinsing with RPMI serum free medium and then pre-incubated in 1 ml RPMI serum free medium for 1 hour. […] .
The 8,12-iso-iPF2α-VI was analyzed in 1 ml conditioned medium, adjusted to pH 3, using the same method described for urine samples.

The test system of a further data set is heme oxygenase 1 (HO 1). Description: Heme oxygenase 1 Western blotting in MASMC. The class given is cell-based, mouse. The note with it: 100 nM cicaprost, 8 hours, IP-dependent. The method, then: as §1
Heme oxygenase 1 (HO 1) Western Blotting: A polyclonal rabbit anti-heme oxygenase 1 (HO 1, ˜32 kDa) was purchased from Stressgen Biotechnologies, Victoria, BC, Canada. MASMCs were treated with 100 nM cicaprost for 8 hours in RPMI vehicle at 37° C. Control cells were treated with vehicle for the same time period. […] Protein isolated from aortae of high fat fed mice was quantitated by the BioRad DC assay for Western Blotting.

Data set [7] deals with IP. Description: Direct measurement of blood pressure after cicaprost. The class given is in vivo, mouse. The note with it: cicaprost 1 μg/kg iv, IP−/−. From the text: (§2) IPKO and mPGES-1 KO mice: IPKO mice were backcrossed into a C57BL/6 genetic background (Cheng et al., 2002, Science 296: 539). IP^−/−, IP^+/−, and WT littermates were identified in litters generated by the intercross of IP^+/− animals by polymerase chain reaction analysis (PCR) of genomic DNA isolated from tail biopsy samples. Southern blot analysis confirmed the IP gene copy number. mPGES-1 KO mice were kindly provided by Pfizer Inc (New York, N.Y.). They were generated and maintained on the DBA/1 lacJ genetic background (Trebino et al., 2003, Proc. Natl. Acad. Sci. U.S.A. 100: 9044). Heterozygous animals were intercrossed, and the litters were screened by PCR analysis to identify both mPGES-1 KO and wild-type controls. Biochemical and functional analyses in each case were performed on mutant mice and WT littermate controls.
(§3) (iii) Direct measurement of blood pressure: Mice were anesthetized (ketamine 100 mg/kg, acepromazine 5 mg/kg) and placed on a temperature-controlled panel. The right internal jugular vein and left carotid artery were cannulated with PE-10 tubing. The arterial catheter was connected to a Capto SP844 pressure transducer (Capto, Horten, Norway), and blood pressure (BP) was monitored continuously with a Powerlab/8SP system (AD Instruments Inc.), as previously described (Hui et al., 2004, Circulation 110:3360; Rocca et al., 2000, Nat. Med. 6:219). Blood pressure and heart rate were continuously monitored for 20-40 minutes until stable values were obtained. After the equilibration period and the baseline BP was recorded, mice were injected via the right internal jugular vein with cicaprost (1 ug/kg in 4 mL/kg saline) as a bolus, and the same volume of saline was injected before cicaprost administration to exclude volume-mediated BP changes. The BP was continuously recorded until it returned to pretreatment baseline.

In data set [8] the target is T1, IP (Mus musculus, UniProt P43252).
T1 construct: from tissue; host or cells: live anesthetized mice (WT, IP+/- and IP-/- littermates, C57BL/6 background); vasculature
The description is as above. The class given is in vivo. The note with it: cicaprost 1 μg/kg iv.
Text: as §2, §3

For data set [9], the system named is Male C57BL/6J mice. The note with it: one week after LC ligation, severe flow reduction. An excerpt: (§4) Briefly, the distal left common carotid artery (LC) artery and its bifurcation into the external and internal carotid were exposed using blunt dissection. 9-0 nylon sutures (USSC Sutures, Norwalk, Conn.) were used to ligate the EC artery, incisions were closed (7-0 polypropylene) and mice were left to recover. Severe reduction in flow was achieved by ligating the LC artery just proximal to the external/internal carotid artery bifurcation. Five μm cross sections were used from parallel regions of RC and LC that were isolated in 5 millimeter (mm) blocks proximal to the ligation, until reaching a parallel point at the RC artery branchpoint with the right subclavian artery. […] Mice that developed thrombosis were excluded from the analysis. […] Urine was collected from individual mice using metabolic cages at four weeks of age, and again after a four week period of treatment, subsequent to either moderate or severe flow reduction. Urine samples were frozen at −20° for analysis.

Data set [10] concerns Male C57BL/6J mice. Here is the method:
(§5) Animals: All animal studies were performed according to protocols approved by the Institutional Committee for Use and Care of Laboratory Animals. Male C57BL/6J mice, aged four to six weeks were used for the flow reduction models. The parental background strain of the male, four to six week old donor mice in the transplant studies was also C57BL/6J (H2b). The background of the recipient mice was C3H(H2k) (Taconic Farms Inc, Germantown, N.Y.).
Urine was collected over a 24 hour period in metabolic cages (Nalgene Labware, Deepwater, N.J.) with vehicle or nimesulide allowed ad libitum. Urinary levels of prostanoid metabolites were measured by stable isotope dilution methods as previously described. […] A urine aliquot (0.1 ml) was used for measurement of creatinine by an automated colorimetric assay (Sigma-Aldrich Co., St Louis, Mo.).
as §4

Data set [11] has as its system Male C57BL/6J mice. The note with it: nimesulide. The method, then:
as §5, §4

Where [12] appears, read: nimesulide, severe flow reduction.

Where two headings read alike, the source gives them in different places.

T1 sequence (P43252 1-412 limits assumed): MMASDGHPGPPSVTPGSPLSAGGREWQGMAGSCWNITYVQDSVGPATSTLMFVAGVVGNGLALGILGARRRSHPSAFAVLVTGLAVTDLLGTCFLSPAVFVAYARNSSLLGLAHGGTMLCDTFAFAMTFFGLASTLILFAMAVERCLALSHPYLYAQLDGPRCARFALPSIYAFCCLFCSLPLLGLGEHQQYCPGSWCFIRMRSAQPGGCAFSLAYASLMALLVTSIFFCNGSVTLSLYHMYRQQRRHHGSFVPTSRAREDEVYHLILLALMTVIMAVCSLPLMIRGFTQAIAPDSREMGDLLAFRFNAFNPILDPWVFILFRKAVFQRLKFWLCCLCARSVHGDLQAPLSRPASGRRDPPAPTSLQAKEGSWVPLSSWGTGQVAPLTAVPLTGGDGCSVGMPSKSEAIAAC

On to `Cc1onc(-c2ccccc2)c1-c1ccc(S(N)(=O)=O)cc1` [valdecoxib], for which the “adverse event diagnosed in the patient” value in [1] was “left iliac vein thrombosis and bilateral pulmonary emboli”. Moreover, in [2], the “relative risk of heart attack and stroke” value is reported as “three-fold increase”.
For the compound `Cc1ccc(-c2cc(C(F)(F)F)nn2-c2ccc(S(N)(=O)=O)cc2)cc1` [celecoxib], in the data set on mice [3], the “blood pressure compared to WT controls” value was “elevated”.
As for `CC1(C)OC(=O)C(c2cccc(F)c2)=C1c1ccc(S(C)(=O)=O)cc1` [DFU, 5,5-dimethyl-3-(3-fluorophenyl)-4-(4-methylsulphonyl)phenyl-2(5H)-furanone], in the data set with eicosanoid biosynthesis (DFU, WT mice), the “mean depression of urinary 2,3-dinor 6-keto PGF1α from pretreatment values” was determined as 71.2%, the “mean depression of urinary PGE-M from pretreatment values” is 52.3% and the “urinary 2,3-dinor TxB2 vs pretreatment values” is reported as “did not depress”. Further, the “urinary 2,3-dinor TxB2” value in the data set with eicosanoid biosynthesis (DFU, WT mice, second value of the printed pair (4.63±1.3 vs.), order not stated) came out at 6.0±1.1 ng/mg creatinine. Moreover, the “urinary 2,3-dinor 6-keto PGF1α” value in the data set with eicosanoid biosynthesis (PGHS-2 inhibition, mice) is “suppressed substantially”. For the same compound, the “urinary 2,3-dinor TxB2” value in the data set with eicosanoid biosynthesis (treatment with PGHS-2 selective inhibitor, mice) is given as “unaltered significantly”. Besides, in the data set on mice [4], the “mean impact on time to occlusion, % of WT value” came out at 56.2%.
Take `CCC#CC[C@H](C)[C@H](O)C#C[C@@H]1[C@H]2C/C(=C/COCC(=O)O)C[C@H]2C[C@H]1O` [cicaprost]: the “platelet aggregation readout, second value printed for IP+/− mice” value with IP [5] was 100%. For the same compound, the “inhibition of platelet aggregation, % of the maximal inhibition observed in WTs” value with IP [5] (IP+/− mice) stood at 86.7%. Besides, the “response of MASMCs to H2O2, iP generation” value in [6] (cicaprost 100 nM, H2O2 100 μM 30 min) was “limits the response”. Besides, the “iP generation from unstimulated cells” value in [6] (cicaprost, MASMC without H2O2) is “does not significantly reduce”. For the same compound, in the data set with heme oxygenase 1 (HO 1), the “HO 1 protein expression” value is on record as “increased expression”. In the data set with IP [7], the “depressor response, MAP” value is “no change in MAP”. For the same compound, the “maximal decline in mean arterial pressure from pretreatment baseline” value in the data set on IP [7] was 0%; on IP [8] (IP+/−) it was 24%; at IP [8] (WT) it was 36±3.5%. In addition, the entries for the “duration of the depressor response” value on IP [8] (IP+/−) and on IP [8] (WTs) were 5.3 ± 1.1 min and 10.8 ± 2.5 min, respectively.
As to `CS(=O)(=O)Nc1ccc([N+](=O)[O-])cc1Oc1ccccc1` [nimesulide], in the data set on Male C57BL/6J mice [9], the “blood flow in the LC, nimesulide vs vehicle” value is “marked reduction”. Besides, the “urinary PGI-M” value with Male C57BL/6J mice [10] (nimesulide 40 mg/L in drinking water, chronic, control mice) was “depressed urinary PGI-M”. The “urinary 2,3-dinor TxB2 excretion” value with Male C57BL/6J mice [10] (nimesulide, control conditions) was “failed to suppress”. For the same compound, the “excretion of an isoprostane biomarker of lipid peroxidation” value in the data set on Male C57BL/6J mice [10] (nimesulide, control mice) is “did not alter excretion”. In addition, the “urinary PGI-M” value in the data set with Male C57BL/6J mice [10] (nimesulide, moderate and severe reduction in flow) is “depressed PGI-M to a similar degree”. In the data set with Male C57BL/6J mice [10] (setting [12]), the “oxidant stress, urinary 8,12-iso-iPF2α-VI” value was “markedly augmented” and the “platelet activation, urinary 2,3-dinor TxB2 excretion” value is on record as “markedly augmented”. Moreover, in the data set on Male C57BL/6J mice [11] (control mice), the “lumen diameter and external elastic lamina diameter of RCs or LCs” value is reported as “did not itself affect”. Moreover, the “flow dependent reduction in vessel size (luminal and EEL diameter)” value in the data set on Male C57BL/6J mice [11] (moderate or severe flow reduction) is given as “failed to alter”. Further, the “neointimal area, intimal hyperplastic response in LC” value in the data set on Male C57BL/6J mice [11] (severe flow reduction) is on record as “markedly augmented the intimal hyperplastic response”.
